Measured values from patent publication US20260217698A1 (BEYANG THERAPEUTICS CO., LTD., priority 2022, published 2026).
Values after ≈ are worked out from the molar mass of the structure shown. Like-named read-outs stand apart in the source and are kept apart here.

Assays:
EGFR = target: T1, EGFR (Homo sapiens, UniProt P00533); assay: Kinase inhibition, Mobility Shift Assay/IMAP, EGFR; type: biochemical
T1 construct: purchased Carna 08-115
How it was run: (§1)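 Substrate conversion (phosphorylated vs non-phosphorylated) read by mobility shift on Caliper EZ Reader II and converted to % inhibition relative to no-enzyme and DMSO controls. IC50 fitted from % inhibition versus log compound concentration.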

[1] = Solubility test in buffer, LC-MS; type: physicochemical; conditions: aqueous buffer, thermodynamic from solid, room temperature, shaking 8 h, pH not given (method: pH 2.0, 6.5, 7.4)
How it was run: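 Compound at 2 mg/mL in buffers of pH 2.0, 6.5 and 7.4, sonicated, shaken 8 h at room temperature, then centrifuged at 13,000 rpm. Supernatant quantified by LC-MS against a 3–5 point calibration.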

VEGFR1 = target: T2, VEGFR1 (Homo sapiens, UniProt P17948); assay: Kinase inhibition, Mobility Shift Assay/IMAP, VEGFR1; type: biochemical
T2 construct: purchased Invitrogen PR6731B
How it was run: as §1

HUVEC cells = assay: Inhibition of VEGF-induced HUVEC cell proliferation, CellTiter Glo; type: cell-based; conditions: Homo sapiens, 20 ng/ml VEGF, 72 hours
From the text: In this experiment, human umbilical vein endothelial cells (HUVEC, Lonza) were used. HUVEC cells are primary cells isolated from umbilical veins. This cell line is a model system to study the functions of endothelial cells. Endothelial cell proliferation in response to VEGF is crucial to the pathological angiogenesis associated with conditions such as tumor development and ocular neovascular diseases.
In this assay, a luciferase bioluminescence assay (CellTiter GLU™, Promega) is used to determine the inhibitory activity of the compounds against VEGF-induced HUVEC cell proliferation and viability. CellTiter GLO™ is a homogeneous method for quantifying the count of viable cells in culture based on ATP, an indicator of metabolically active cells. In this assay, the compound was incubated with HUVEC cells for 72 hours, and then the inhibitory activity of the resulting compound against VEGF-induced HUVEC cell proliferation was measured on the En Vision plate reader.
With the RPMI-1640 medium (plus 5% FBS, 1% Penicillin-Streptomycin) used for the HUVEC cell proliferation experiment, add a cell suspension to a 96-well plate at 100 μl per well, i.e., 4000 HUVEC cells/well, and incubate them overnight in a 5% CO2 incubator at 37° C. (serum starvation). After 24 hours, add 96 μl of the experimental medium to the cell wells, and then add 2 μl of the compound to the cell wells; and after 1 hour following the addition of the compound, add 2 μl of 2 μg/ml VEGF to the cell wells. Add 0.1% DMSO and 20 ng/ml VEGF to cell wells to serve as high-reading control wells. Take cell-free wells with only medium as low-reading control wells. […] After 72 hours of incubation of the cell plate in the incubator, hold the cell plate to be tested at room temperature and discard 100 μl of medium per well. Add 100 μl of CTG reagent (CellTiter Glo kit) per well, oscillate the cell plate in a fast oscillator for 3 minutes, and keep the cell plate at room temperature in the dark for 30 minutes. Read the chemiluminescence signal value with the Envision instrument.
X indicates the log value of compound concentration, Y indicates the inhibition rate (% inhibition), Top indicates the readout of the high-reading control well.

TIE2 = target: T3, TIE2 (Homo sapiens, UniProt Q02763); assay: Kinase inhibition, Mobility Shift Assay/IMAP, TIE2; type: biochemical
T3 construct: purchased BPS 40270
T3 sequence (Q02763 23-1124): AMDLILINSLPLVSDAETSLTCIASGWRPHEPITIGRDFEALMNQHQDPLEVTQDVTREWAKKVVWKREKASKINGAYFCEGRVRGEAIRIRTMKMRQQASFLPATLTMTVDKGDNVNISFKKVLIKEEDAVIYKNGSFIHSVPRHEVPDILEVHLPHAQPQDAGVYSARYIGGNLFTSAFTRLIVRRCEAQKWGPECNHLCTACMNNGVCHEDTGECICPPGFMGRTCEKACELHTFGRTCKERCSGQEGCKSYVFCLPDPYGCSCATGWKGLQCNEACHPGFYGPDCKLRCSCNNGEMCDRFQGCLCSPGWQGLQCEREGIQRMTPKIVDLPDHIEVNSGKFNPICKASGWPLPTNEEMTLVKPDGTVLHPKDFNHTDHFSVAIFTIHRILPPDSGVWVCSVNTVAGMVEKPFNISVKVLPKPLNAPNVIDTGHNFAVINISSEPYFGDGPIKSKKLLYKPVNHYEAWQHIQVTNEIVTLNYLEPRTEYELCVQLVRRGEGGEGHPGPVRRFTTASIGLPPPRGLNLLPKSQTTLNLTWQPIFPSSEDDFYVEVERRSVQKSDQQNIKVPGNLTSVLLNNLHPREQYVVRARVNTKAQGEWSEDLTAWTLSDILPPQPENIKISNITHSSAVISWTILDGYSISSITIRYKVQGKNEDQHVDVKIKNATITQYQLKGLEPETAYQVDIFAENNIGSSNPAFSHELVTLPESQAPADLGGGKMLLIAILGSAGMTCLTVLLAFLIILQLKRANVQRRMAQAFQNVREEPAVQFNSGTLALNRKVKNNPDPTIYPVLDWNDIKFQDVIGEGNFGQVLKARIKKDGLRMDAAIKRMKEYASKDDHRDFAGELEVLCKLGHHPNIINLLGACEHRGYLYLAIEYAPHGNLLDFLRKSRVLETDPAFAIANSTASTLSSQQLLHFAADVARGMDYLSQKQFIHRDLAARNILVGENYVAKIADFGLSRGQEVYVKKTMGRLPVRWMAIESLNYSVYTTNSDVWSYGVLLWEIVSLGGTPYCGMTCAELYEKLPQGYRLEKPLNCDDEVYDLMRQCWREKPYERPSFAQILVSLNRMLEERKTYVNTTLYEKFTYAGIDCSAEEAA
How it was run: as §1

VEGFR3 = target: T4, VEGFR3 (Homo sapiens, UniProt P35916); assay: Kinase inhibition, Mobility Shift Assay/IMAP, VEGFR3; type: biochemical
T4 construct: purchased Invitrogen PV4129
T4 sequence (P35916 25-1363): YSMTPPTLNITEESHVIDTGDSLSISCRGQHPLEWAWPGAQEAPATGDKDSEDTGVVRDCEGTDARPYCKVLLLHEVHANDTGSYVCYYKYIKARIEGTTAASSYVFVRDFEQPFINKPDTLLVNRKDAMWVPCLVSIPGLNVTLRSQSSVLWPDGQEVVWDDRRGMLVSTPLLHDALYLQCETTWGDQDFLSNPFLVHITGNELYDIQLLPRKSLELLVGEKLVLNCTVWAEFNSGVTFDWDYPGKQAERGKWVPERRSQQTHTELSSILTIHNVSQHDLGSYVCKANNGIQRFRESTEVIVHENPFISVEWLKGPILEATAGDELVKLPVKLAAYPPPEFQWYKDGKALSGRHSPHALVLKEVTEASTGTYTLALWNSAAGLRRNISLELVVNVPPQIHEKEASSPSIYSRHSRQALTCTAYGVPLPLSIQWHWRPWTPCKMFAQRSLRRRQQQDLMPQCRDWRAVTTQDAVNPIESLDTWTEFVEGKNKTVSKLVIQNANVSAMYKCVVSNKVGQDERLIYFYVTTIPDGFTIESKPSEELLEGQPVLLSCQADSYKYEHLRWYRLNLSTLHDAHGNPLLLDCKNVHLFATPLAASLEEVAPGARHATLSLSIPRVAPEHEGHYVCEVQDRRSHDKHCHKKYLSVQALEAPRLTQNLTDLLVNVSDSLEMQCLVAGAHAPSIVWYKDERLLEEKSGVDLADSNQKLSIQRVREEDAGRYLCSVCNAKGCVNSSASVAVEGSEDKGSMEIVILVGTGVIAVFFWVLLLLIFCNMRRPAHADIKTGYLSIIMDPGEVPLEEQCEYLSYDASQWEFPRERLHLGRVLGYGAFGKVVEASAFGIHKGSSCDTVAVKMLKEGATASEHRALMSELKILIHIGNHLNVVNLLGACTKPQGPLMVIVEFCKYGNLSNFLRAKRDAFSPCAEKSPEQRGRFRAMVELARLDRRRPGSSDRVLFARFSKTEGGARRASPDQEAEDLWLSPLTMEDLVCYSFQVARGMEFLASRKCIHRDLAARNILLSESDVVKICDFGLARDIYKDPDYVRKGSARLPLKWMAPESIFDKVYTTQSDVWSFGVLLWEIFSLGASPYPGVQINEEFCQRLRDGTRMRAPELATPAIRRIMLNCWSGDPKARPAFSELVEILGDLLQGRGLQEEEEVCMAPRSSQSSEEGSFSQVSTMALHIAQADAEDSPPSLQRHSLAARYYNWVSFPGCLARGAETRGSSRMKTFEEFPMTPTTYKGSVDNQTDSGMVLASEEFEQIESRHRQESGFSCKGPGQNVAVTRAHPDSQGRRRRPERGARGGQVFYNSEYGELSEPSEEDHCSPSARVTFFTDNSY
How it was run: as §1

VEGFR2 [2] = target: T5, VEGFR2 (Homo sapiens, UniProt P35968); assay: Kinase inhibition, Mobility Shift Assay/IMAP, VEGFR2; type: biochemical; parameters: purchased Carna 08-191
How it was run: as §1
Target sequence in this assay (P35968 790-1356 limits assumed): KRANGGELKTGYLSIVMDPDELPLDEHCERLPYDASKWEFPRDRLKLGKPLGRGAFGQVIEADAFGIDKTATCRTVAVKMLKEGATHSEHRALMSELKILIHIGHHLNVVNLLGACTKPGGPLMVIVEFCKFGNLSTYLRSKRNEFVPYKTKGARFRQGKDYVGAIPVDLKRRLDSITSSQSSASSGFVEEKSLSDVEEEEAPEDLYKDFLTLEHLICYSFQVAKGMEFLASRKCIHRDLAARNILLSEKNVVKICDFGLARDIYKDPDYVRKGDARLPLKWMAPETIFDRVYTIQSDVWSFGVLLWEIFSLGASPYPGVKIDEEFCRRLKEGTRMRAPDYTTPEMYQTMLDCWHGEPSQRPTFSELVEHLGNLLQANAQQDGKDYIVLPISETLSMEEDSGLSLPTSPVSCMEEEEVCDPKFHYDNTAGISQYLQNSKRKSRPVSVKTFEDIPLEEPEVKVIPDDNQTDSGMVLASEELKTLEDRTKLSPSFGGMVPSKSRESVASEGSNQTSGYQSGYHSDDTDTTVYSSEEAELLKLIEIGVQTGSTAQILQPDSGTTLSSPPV

VEGFR2 [3] = target: T5, VEGFR2; assay: Inhibition of VEGF-induced VEGFR2 autophosphorylation (pVEGFR2) in HUVEC cells, ELISA; type: cell-based; parameters: endogenous in cells; host or cells: HUVEC; conditions: 50 ng/mL human VEGF, compound 1 h
From the text: Vascular endothelial growth factor receptor 2 (VEGFR2) is a primary receptor for VEGF-induced endothelial cell signaling. After ligand binding, VEGFR2 is autophosphorylated and activated. The main function of signaling from VEGFR2 is to induce vascularization during development and after tissue injury, and to bypass blocked blood vessels. Pathologically, VEGF and VEGFR2 are involved in tumor angiogenesis and vascular leakage. They are considered to be main participants in many different cancers and ocular diseases that accompany pathological neovascularization. This assay measured the ability of the compounds to inhibit VEGF-induced VEGFR2 autophosphorylation (pVEGFR2) in HUVEC cells by using ELISA.
Culture cells in a cell culture flask to reach a fusion degree of 60%-80% before cell inoculation. Dilute the cell suspension to […] with a pre-warmed complete medium. Add 80 μL of the cell suspension to all wells of a 96-well cell plate (Corning-3599); and incubate the plate overnight at 37° C. in the presence of 5% CO2. Dissolve the compound powder to 10 mM with DMSO and store it in a nitrogen cabinet. Compound dilution plate: Add a reference compound Ponatinib or a compound to be tested to a 96 V-well plate (Axygen-WIPP 2280) at concentrations achieved as follows: performing 3-fold gradient dilution starting from 5 mM (5 μL of 10 mM compound solution plus 5 μL of DMSO) for a total of 8 concentration points. […] Transfer 20 μL of the diluted compound from the intermediate plate to a cell plate. Then, incubate the cell plate for 1 h at 37° C. in the presence of 5% CO2. After the compound was treated for 1 h, add 25 μL of 250 ng/ml human VEGF at a final concentration of 50 ng/mL to a 96-well plate; and incubate the plate for 5 min at 37° C. in the presence of 5% CO2, centrifuge the plate for 10 min at 3,000 rpm, remove the medium and wash the cells once with 300 μL of pre-chilled DPBS per well. Then, centrifuge the plate for 10 min at 4,000 rpm, remove DPBS, and add 110 μL of pre-chilled 1× cell lysis buffer per well to the 96-well plate. Shake the plate for 40 min at 4° C. Then, freeze the plate in a refrigerator at −80° C. On the next day, remove the plate from the refrigerator at −80° C., thaw the plate, centrifuge the plate for 10 min at 3500 rpm, and add 100 μL of the supernatant per well to an ELISA plate. Seal the plate and incubate it for 2 h at 37° C. Wash the wells 4 times with 1× wash buffer. Add 100 μL of recombinant detection antibody per well. Seal the plate, incubate the plate for 1 h at 37° C., and repeat the step of plate washing. Add 100 μL of secondary antibody per well. Seal the plate, incubate the plate for 30 min at 37° C., and repeat the step of plate washing. Add 100 μL of TMB (protected from light) per well. Seal the plate, incubate the plate for 30 min at 37° C., and add 100 μL of the stop solution per well. Gently shake for 30 sec, measure the absorbance with a SpectraMax® 340 PC 384 Absorbance Microplate Reader within 30 min, and read an optical density value at 450 nm. Conduct data analysis using XL Fit software:
Conduct curve fitting using the 4 Parameter Logistic Model or Sigmoidal Dose-Response Model to obtain IC50 values.
X indicates the log value of compound concentration, Y indicates the inhibition rate (% inhibition), Top indicates the readout of the negative control wells, and Bottom indicates the readout of the positive control well.
Target sequence in this assay (P35968 20-1356): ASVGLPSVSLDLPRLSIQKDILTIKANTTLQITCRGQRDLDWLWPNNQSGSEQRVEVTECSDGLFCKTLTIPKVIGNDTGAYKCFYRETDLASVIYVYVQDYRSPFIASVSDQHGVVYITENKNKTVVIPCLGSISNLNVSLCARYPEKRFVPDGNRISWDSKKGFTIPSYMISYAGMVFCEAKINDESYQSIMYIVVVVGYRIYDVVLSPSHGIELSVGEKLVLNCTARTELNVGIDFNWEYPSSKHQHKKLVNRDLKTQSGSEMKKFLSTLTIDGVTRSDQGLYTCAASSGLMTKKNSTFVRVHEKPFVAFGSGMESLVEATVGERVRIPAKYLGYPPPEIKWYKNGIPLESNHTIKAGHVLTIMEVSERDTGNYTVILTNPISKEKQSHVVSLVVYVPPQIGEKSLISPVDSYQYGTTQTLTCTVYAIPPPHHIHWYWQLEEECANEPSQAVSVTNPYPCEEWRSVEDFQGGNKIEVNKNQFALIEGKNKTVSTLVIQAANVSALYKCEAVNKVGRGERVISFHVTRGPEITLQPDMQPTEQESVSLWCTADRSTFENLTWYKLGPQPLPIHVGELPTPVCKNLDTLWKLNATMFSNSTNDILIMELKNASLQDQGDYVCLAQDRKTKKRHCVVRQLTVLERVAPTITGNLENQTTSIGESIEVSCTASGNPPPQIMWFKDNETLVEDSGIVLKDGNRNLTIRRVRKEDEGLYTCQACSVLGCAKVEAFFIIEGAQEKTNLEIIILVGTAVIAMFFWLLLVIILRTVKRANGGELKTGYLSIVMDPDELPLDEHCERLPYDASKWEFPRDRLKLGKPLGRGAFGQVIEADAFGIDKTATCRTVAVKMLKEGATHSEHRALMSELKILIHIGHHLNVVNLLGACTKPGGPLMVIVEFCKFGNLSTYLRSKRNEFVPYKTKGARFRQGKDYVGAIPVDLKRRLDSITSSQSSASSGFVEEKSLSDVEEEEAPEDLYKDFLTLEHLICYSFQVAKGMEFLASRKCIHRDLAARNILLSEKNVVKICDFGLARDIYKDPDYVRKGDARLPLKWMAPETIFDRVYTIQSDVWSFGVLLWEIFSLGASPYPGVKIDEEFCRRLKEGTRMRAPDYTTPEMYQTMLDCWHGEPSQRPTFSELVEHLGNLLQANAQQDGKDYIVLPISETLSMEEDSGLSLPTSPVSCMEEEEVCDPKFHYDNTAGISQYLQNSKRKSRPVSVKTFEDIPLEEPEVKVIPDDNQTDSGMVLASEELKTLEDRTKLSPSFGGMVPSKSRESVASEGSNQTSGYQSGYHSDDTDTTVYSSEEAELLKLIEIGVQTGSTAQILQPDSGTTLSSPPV

melanin = assay: Binding capacity of compounds to melanin; type: in vitro ADME, cuttlefish (Sepia officinalis); conditions: cuttlefish (Sepia officinalis), melanin suspension (1 mg/mL); 1 mg/mL melanin in PBS pH 7.4, 2 μM compound, 2 h at 37° C.; read-out: Fu % (percentage of free drug)
How it was run: (§2)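 Compound (2 μM final) incubated with washed Sepia melanin (1 mg/mL, PBS pH 7.4) 2 h at 37° C with shaking; PBS with 0.1% BSA served as blank. Supernatants quantified by LC-MS/MS; bound fraction Fb derived from melanin versus blank concentration.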

[4] = rabbit; for MTD on the third day of eye drop administration: eye drops 3 times a day, both eyes; for MTD on the eighth day of eye drop administration: six consecutive days of eye drops, 3 times a day
Protocol: We used male Dutch black-banded rabbits to assess the MTD of the compounds administered in eye drops.
Male Dutch black-banded rabbits (weighing 1.5 kg to 2.5 kg) were purchased from an eligible supplier.
A total of 8 rabbits animals with good health conditions and normal eyes (without abnormalities such as trauma, congestion, redness and swelling) were randomly divided into 4 groups. […] Eye drop administration was conducted for two consecutive days, 3 times a day, at an interval of 6±0.5 hours. Before administration, the status of the dosing preparation was inspected, and its homogeneity was ensured by means of vortexing, stirring, or shaking. Before each administration, the states of rabbit eyes were observed, including but not limited to eye color, substances around the eyes, conjunctival swelling, eye exudate, discharge, cornea, pupillary reflex, etc. Subsequently, the toxicity risk assessment for six consecutive days of eye drop administration was further conducted. A total of 8 rabbits were randomly divided into 2 groups. […] Eye drop administration was conducted 3 times a day, at an interval of 6±0.5 hours.

[5] = tested on: male black-banded Dutch rabbits
From the text: The binding of the compound to melanin may affect ocular pharmacokinetics after topical administration. […] In such cases, the compound may bind to melanin tissues in the posterior segment (retinal pigment epithelium, choroid) or anterior segment (ciliary body, iris) of the eye.

[6] = Binding capacity of compounds to melanin; type: in vitro ADME, cuttlefish (Sepia officinalis)
How it was run: as §2

[7] = eye drops, male black-banded Dutch rabbits, third day after eye drop administration

T1 sequence (P00533 669-1210 limits assumed): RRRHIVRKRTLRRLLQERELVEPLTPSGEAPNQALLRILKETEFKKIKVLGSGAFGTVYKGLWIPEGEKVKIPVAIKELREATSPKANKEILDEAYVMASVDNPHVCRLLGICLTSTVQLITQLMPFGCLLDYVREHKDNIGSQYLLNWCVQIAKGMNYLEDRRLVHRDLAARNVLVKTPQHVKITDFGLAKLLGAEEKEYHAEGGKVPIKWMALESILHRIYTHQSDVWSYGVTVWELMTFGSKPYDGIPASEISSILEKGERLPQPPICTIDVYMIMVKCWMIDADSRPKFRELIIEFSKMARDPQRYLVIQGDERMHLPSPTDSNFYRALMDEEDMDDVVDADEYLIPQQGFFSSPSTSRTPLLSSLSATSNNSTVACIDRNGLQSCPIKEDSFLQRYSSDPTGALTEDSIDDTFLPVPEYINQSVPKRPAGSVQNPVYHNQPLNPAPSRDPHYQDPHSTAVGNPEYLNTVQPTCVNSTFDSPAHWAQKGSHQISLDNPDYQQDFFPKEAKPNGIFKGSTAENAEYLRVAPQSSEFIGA

Row | SMILES | IC50 (EGFR) [nM] | solubility at 8 h [1] [µg/mL] | IC50 (VEGFR1) [nM] | IC50 (HUVEC cells) [nM] | IC50 (TIE2) [nM] | IC50 (VEGFR3) [nM] | IC50 (VEGFR2 [2]) [nM] | IC50 (VEGFR2 [3]) [nM] | fraction unbound at 2 h, 2 μM (melanin) | MTD on the third day of eye drop administration [4] [μg/eye] | MTD on the eighth day of eye drop administration [4] [μg/eye] | maximum tolerated dose (MTD) [5, 7] [μg/eye] | Percentage of free drug with respect to melanin, comparison in words [6] | Eye observations ([4]; 100 μg/eye, six consecutive days, seventh day) | maximum tolerated dose (MTD) ([5]; eye drops to rabbits for six consecutive days) [μg/eye]
1 | NC(=O)c1c(OCc2ccc3c(c2)OCC3)nsc1NC(=O)NCCCCN1CCCC1 [Compound T042, 3-((2,3-dihydrobenzofuran-6-yl)methoxy)-5-(3-(4-(pyrrolidin-1-yl)butyl)ureido)isothiazole-4-carboxamide] | 33000 | 820 (≈ 1780 µM) | 34.3 | 79.9 | 448 | 42 | 14.2 | 22 |  |  |  |  |  |  | 
2 | COc1ccc(F)c(COc2nsc(NC(=O)NCCCCN3CCCC3)c2C(N)=O)c1F [Compound T093, 3-((2,6-difluoro-3-methoxybenzyl)oxy)-5-(3-(4-(pyrrolidin-1-yl)butyl)ureido)isothiazole-4-carboxamide] | 14600 |  |  | 55.8 | 181 |  | 12.4 |  | 0.0531 | ≥ 250 | ≥ 250 | ≥ 250 |  |  | 
3 | COc1ccc(F)c(COc2nsc(NC(=O)NCCCCN3CC[C@H](O)C3)c2C(N)=O)c1F [Compound T104, 3-[(2,6-difluoro-3-methoxy-phenyl)methoxy]-5-[4-[(3S)-3-hydroxypyrrolidin-1-yl]butylcarbamoylamino] isothiazole-4-carboxamide] | 18900 |  |  | 35.5 |  |  | 16.4 | 34.5 | 0.0322 |  |  |  |  |  | 
4 | COc1ccc(F)c(COc2nsc(NC(=O)NCCCCN3CC[C@@H](O)C3)c2C(N)=O)c1F [Compound T114, 3-[(2,6-difluoro-3-methoxy-phenyl)methoxy]-5-[4-[(3R)-3-hydroxypyrrolidin-1-yl]butylcarbamoylamino]isothiazole-4-carboxamide] | 13400 |  |  | 19 |  |  | 12.8 | 32.5 | 0.0333 |  |  |  |  |  | 
5 | COc1cc(OC)c(F)c(COc2nsc(NC(=O)NCCC3CCN(CCF)CC3)c2C(N)=O)c1F [Compound T126, 3-[(2,6-difluoro-3,5-dimethoxy-phenyl)methoxy]-5-[2-[1-(2-fluoroethyl)-4-piperidyl]ethylcarbamoylamino]isothiazole-4-carboxamide] | > 60000 |  |  | 22 |  |  | 2.7 | 27 | 0.0495 |  |  |  |  |  | 
6 | NC(=O)c1c(OCc2c(F)cc(Br)cc2F)nsc1NC(=O)NCCCCN1CCCC1 [PAN90806] |  | 124 (≈ 234 µM) |  | 76.8 |  |  |  |  | 0.0129 | 100 | 50 | 100 | lower percentage of free drug | ocular toxicity (corneal opacity and conjunctival swelling, or corneal edema and conjunctival hyperemia, or ocular discharge) was observed in all the 4 rabbits | 50
